Results from PubChem BioAssay (NCI).
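Step 1: Grow cells in 96-well plates. Step 2: Expose to compound for 48 hours at 5 concentrations. Step 3: Interpolate endpoints linearly; if unreached, use highest concentration. Here, GI50 denotes the concentration required for 50% inhibition of growth. TGI: total growth inhibition.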

Legend:
Experiment in all cases: growth of human tumour cells (NCI), 48 h
PC-3 prostate = system: PC-3 prostate
A549 NSCLC = system: A549 NSCLC
786-0 renal = system: 786-0 renal
A498 renal = system: A498 renal
LOX IMVI melanoma = system: LOX IMVI melanoma
K-562 leukemia = system: K-562 leukemia
OVCAR-3 ovarian = system: OVCAR-3 ovarian
HOP-92 NSCLC = system: HOP-92 NSCLC
OVCAR-5 ovarian = system: OVCAR-5 ovarian
SR leukemia = system: SR leukemia
SNB-75 CNS = system: SNB-75 CNS
SW-620 colon = system: SW-620 colon
BT-549 breast = system: BT-549 breast
SNB-19 CNS = system: SNB-19 CNS
NCI/ADR-RES ovarian = system: NCI/ADR-RES ovarian
MDA-MB-231 breast = system: MDA-MB-231 breast
TK-10 renal = system: TK-10 renal
SN12C renal = system: SN12C renal
CAKI-1 renal = system: CAKI-1 renal
UACC-62 melanoma = system: UACC-62 melanoma
MOLT-4 leukemia = system: MOLT-4 leukemia
RPMI-8226 leukemia = system: RPMI-8226 leukemia
OVCAR-4 ovarian = system: OVCAR-4 ovarian
ACHN renal = system: ACHN renal
NCI-H226 lung = system: NCI-H226 lung
IGROV1 ovarian = system: IGROV1 ovarian
MCF7 breast = system: MCF7 breast
NCI-H23 lung = system: NCI-H23 lung
MDA-MB-435 = system: MDA-MB-435
KM12 colon = system: KM12 colon
M14 melanoma = system: M14 melanoma
SF-539 CNS = system: SF-539 CNS
UO-31 renal = system: UO-31 renal
SF-268 CNS = system: SF-268 CNS
SF-295 CNS = system: SF-295 CNS
HCT-116 colon = system: HCT-116 colon
HT29 colon = system: HT29 colon
U251 CNS = system: U251 CNS
EKVX NSCLC = system: EKVX NSCLC
HOP-62 NSCLC = system: HOP-62 NSCLC
SK-MEL-5 melanoma = system: SK-MEL-5 melanoma
NCI-H460 lung = system: NCI-H460 lung
SK-MEL-28 melanoma = system: SK-MEL-28 melanoma
HCC-2998 colon = system: HCC-2998 colon
CCRF-CEM leukemia = system: CCRF-CEM leukemia
UACC-257 melanoma = system: UACC-257 melanoma
NCI-H522 lung = system: NCI-H522 lung
HCT-15 colon = system: HCT-15 colon
DU-145 prostate = system: DU-145 prostate
OVCAR-8 ovarian = system: OVCAR-8 ovarian
RXF 393 renal = system: RXF 393 renal
HL-60(TB) leukemia = system: HL-60(TB) leukemia
T-47D breast = system: T-47D breast
HS 578T breast = system: HS 578T breast
SK-OV-3 ovarian = system: SK-OV-3 ovarian
COLO 205 colon = system: COLO 205 colon
SK-MEL-2 melanoma = system: SK-MEL-2 melanoma

C=C1CC[C@@H]2[C@](C)(COC(C)=O)[C@H](OC(C)=O)CC[C@@]2(C)[C@@H]1CC(Nc1ccc(S(=O)(=O)Nc2nccs2)cc1)C1=CCOC1=O (some centres undefined)
GI50 (PC-3 prostate): 7.74 µM
TGI (PC-3 prostate): 21.5 µM
GI50 (A549 NSCLC): 3.67 µM
TGI (A549 NSCLC): 11.2 µM
GI50 (786-0 renal): 2.55 µM
TGI (786-0 renal): 6.74 µM
GI50 (A498 renal): 18.2 µM
TGI (A498 renal): 32.6 µM
GI50 (LOX IMVI melanoma): 1.59 µM
TGI (LOX IMVI melanoma): 3.31 µM
GI50 (K-562 leukemia): 3.6 µM
TGI (K-562 leukemia): 29 µM
GI50 (OVCAR-3 ovarian): 1.88 µM
TGI (OVCAR-3 ovarian): 3.64 µM
GI50 (HOP-92 NSCLC): 12.4 µM
TGI (HOP-92 NSCLC): 25.3 µM
GI50 (OVCAR-5 ovarian): 4.82 µM
TGI (OVCAR-5 ovarian): 17.6 µM
GI50 (SR leukemia): 1.33 µM
TGI (SR leukemia): > 100 µM
GI50 (SNB-75 CNS): 2.83 µM
TGI (SNB-75 CNS): 15.6 µM
GI50 (SW-620 colon): 1.85 µM
TGI (SW-620 colon): 3.98 µM
GI50 (BT-549 breast): 2.43 µM
TGI (BT-549 breast): 6.5 µM
GI50 (SNB-19 CNS): 4.36 µM
TGI (SNB-19 CNS): 16.1 µM
GI50 (NCI/ADR-RES ovarian): 2.97 µM
TGI (NCI/ADR-RES ovarian): 12.7 µM
GI50 (MDA-MB-231 breast): 3.31 µM
TGI (MDA-MB-231 breast): 8.25 µM
GI50 (TK-10 renal): 9.45 µM
TGI (TK-10 renal): 21.2 µM
GI50 (SN12C renal): 1.87 µM
TGI (SN12C renal): 4.39 µM
GI50 (CAKI-1 renal): 3.8 µM
TGI (CAKI-1 renal): 14.2 µM
GI50 (UACC-62 melanoma): 1.76 µM
TGI (UACC-62 melanoma): 4.42 µM
GI50 (MOLT-4 leukemia): 3.68 µM
TGI (MOLT-4 leukemia): 73.2 µM
GI50 (RPMI-8226 leukemia): 2.49 µM
TGI (RPMI-8226 leukemia): 7.62 µM
GI50 (OVCAR-4 ovarian): 4.53 µM
TGI (OVCAR-4 ovarian): 17.7 µM
GI50 (ACHN renal): 5.99 µM
TGI (ACHN renal): 18.9 µM
GI50 (NCI-H226 lung): 2.36 µM
TGI (NCI-H226 lung): 5.37 µM
GI50 (IGROV1 ovarian): 4.54 µM
TGI (IGROV1 ovarian): 17.1 µM
GI50 (MCF7 breast): 2.59 µM
TGI (MCF7 breast): 13.6 µM
GI50 (NCI-H23 lung): 10 µM
TGI (NCI-H23 lung): 24.8 µM
GI50 (MDA-MB-435): 3.29 µM
TGI (MDA-MB-435): 12.7 µM
GI50 (KM12 colon): 7.58 µM
TGI (KM12 colon): 21.7 µM
GI50 (M14 melanoma): 2.83 µM
TGI (M14 melanoma): 10.5 µM
GI50 (SF-539 CNS): 2.35 µM
TGI (SF-539 CNS): 6.31 µM
GI50 (UO-31 renal): 4.07 µM
TGI (UO-31 renal): 16.1 µM
GI50 (SF-268 CNS): 11.3 µM
TGI (SF-268 CNS): 25.9 µM
GI50 (SF-295 CNS): 13.8 µM
TGI (SF-295 CNS): 27.2 µM
GI50 (HCT-116 colon): 1.75 µM
TGI (HCT-116 colon): 3.75 µM
GI50 (HT29 colon): 2.17 µM
TGI (HT29 colon): 4.7 µM
GI50 (U251 CNS): 1.86 µM
TGI (U251 CNS): 3.5 µM
GI50 (EKVX NSCLC): 14 µM
TGI (EKVX NSCLC): 27 µM
GI50 (HOP-62 NSCLC): 13.8 µM
TGI (HOP-62 NSCLC): 27.5 µM
GI50 (SK-MEL-5 melanoma): 4.79 µM
TGI (SK-MEL-5 melanoma): 17.1 µM
GI50 (NCI-H460 lung): 10.7 µM
TGI (NCI-H460 lung): 25.3 µM
GI50 (SK-MEL-28 melanoma): 3.95 µM
TGI (SK-MEL-28 melanoma): 15.1 µM
GI50 (HCC-2998 colon): 7.78 µM
TGI (HCC-2998 colon): 21.3 µM
GI50 (CCRF-CEM leukemia): 2.28 µM
TGI (CCRF-CEM leukemia): 6.76 µM
GI50 (UACC-257 melanoma): 2.55 µM
TGI (UACC-257 melanoma): 5.61 µM
GI50 (NCI-H522 lung): 1.72 µM
TGI (NCI-H522 lung): 4.32 µM
GI50 (HCT-15 colon): 1.73 µM
TGI (HCT-15 colon): 4.12 µM
GI50 (DU-145 prostate): 4.47 µM
TGI (DU-145 prostate): 15.8 µM
GI50 (OVCAR-8 ovarian): 3.14 µM
TGI (OVCAR-8 ovarian): 10.8 µM
GI50 (RXF 393 renal): 2.36 µM
TGI (RXF 393 renal): 4.74 µM
GI50 (HL-60(TB) leukemia): 3.01 µM
TGI (HL-60(TB) leukemia): 13.3 µM
GI50 (T-47D breast): 3.39 µM
TGI (T-47D breast): 20.8 µM
GI50 (HS 578T breast): 10.8 µM
TGI (HS 578T breast): 60.4 µM
GI50 (SK-OV-3 ovarian): 14.4 µM
TGI (SK-OV-3 ovarian): 27.8 µM
GI50 (COLO 205 colon): 3.14 µM
TGI (COLO 205 colon): 10.5 µM
GI50 (SK-MEL-2 melanoma): 10.6 µM
TGI (SK-MEL-2 melanoma): 24.4 µM
